The record followed here is patent US5397777A, “Meso poly(4-sulfonatophenyl) porphines as MRI image enhancing agents” (Health Research, Inc., priority 1993, dated 1995).

Read-outs that look alike come from different tables or passages of the source.

For data set [1] the following is noted: mouse, in vivo; for Ratios of the concentration of porphyrins in liver to kidney / Ratios of the concentration of porphyrins in tumor to muscle: iv. On the procedure:
Measured concentrations are averages for two mice.
Biodistribution (liver, kidney, muscle and tumor) of the four manganese porphyrins was measured by absorption spectroscopy of ammonia/methanol mixtures and expressed as μg metalloporphyrin per gram of tissue (wet weight). Quantitation was based upon the extinction coefficient for each porphyrin as predetermined in the extraction solutions.
SMT-F (spontaneous mammary carcinoma) was maintained in the laboratory on a biweekly schedule in which 1 mm^3 pieces of tumor were implanted in the flank of DBA/2HaRos-d^+Ha mice. Porphyrins were delivered by intravenous injection in the tail vein.
The distribution of each porphyrin in kidney, liver, muscle and tumor was determined at 1 and 24 hours post injection.

A further data set deals with L1210 cells. Also noted: unit not given beside the values. The conditions noted are these: mouse, 48 h.
For data set [2], the system named is SMT-F (spontaneous mammary carcinoma). Kind of data set: Magnetic resonance imaging of tumor bearing mouse, signal intensity. The class given is in vivo, DBA/2HaRos-d^+Ha mice. The settings on record: for tumor appearance in MR image / kidney signal in MR image / Normalized Signal Intensity, confidence interval / Normalized Signal Intensity, range / Normalized Signal Intensity, mean ± SD: 100 mg/kg; for kidney signal in MR image: region of the pelvis; for Normalized Signal Intensity, confidence interval: 99% (t test); for Normalized Signal Intensity, range: control 0.652-0.701; for Normalized Signal Intensity, mean ± SD: control 0.685 ± .015. As to the method: Control (upper left), 1 hour post injection (100 mg/kg) of Mn(III)TPPS3 (upper right), and 24 hours post injection (lower left). […] Image intensity working standards (top to bottom) 28 mM CuSO4 in 1N HCl, 5 mM GdDTPA in isotonic saline and baby oil.
Magnetic resonance images were made using a custom-built small animal (mouse) transmitter/receiving coil similar to the design of Henkelman et al., Small Animal Imaging With A Clinical Imager. Magn. Reson. Med. 4:61-66; 1987, and tuned to 15 MHz for use with a Diasonics™ 0.35 Tesla clinical scanner. Images were made using a TR of 500 msec. and a TE of 50 msec. with a slice thickness of 2.5 mm.
Images were analyzed using a Hewlett Packard Vectra™ ES/12 personal computer with high resolution VGA graphics after digitization via a Dage 70™ camera with Vidicon tube utilizing a Matrox™ MVP AT image capture/display board. Signal intensity measurements were made from selected areas of interest (AOI) using Image-Pro II™ software (Media Cybernetics, Silver Spring, MD). Any suitable similar apparatus and software can of course be used. Generally an entire section (image slice) of tumor was circumscribed using a free-form area of interest option. The area of interest was then represented by a histogram relating pixel frequency to gray level. Each gray level (0-255) was multiplied by its associated frequency. The resulting products were summed and divided by the area of interest in units of centimeter squared. The procedure was repeated three times to determine a mean value for the tumor at each time period. The same procedure was carried out for the midrange working standard (5 mM Gd DTPA).
The visual differences (intensity) noted between control and treated (FIG. 2) were quantitated using mean intensity values normalized to corresponding working standards. The results (table 4) indicate that differences between control and enhanced and between one and 24 hrs are significant. Signal intensity measured at 24 hrs is 21% higher than control and 7% higher than the value determined at 1 hr. Note that this analysis ignores the fact that the increase in intensity at 24 hrs is actually concentrated into a relatively small area of the tumor by averaging over the entire section.

Data set [3] shares this test system. Kind of data set: Relaxivity in excised tumor tissue at 10.7 MHz. The class given is in vivo, DBA/2HaRos-d^+Ha mice. The settings on record: 24 hours post injection; for Relaxivity of tumors excised from mice (relaxation rate of treated minus untreated tissue divided by porphyrin concentration in tumor tissue): 100 mg/kg, 10.7 MHz, 37° C. On the procedure:
Relaxation and biodistribution measurements were carried out using procedures known to those skilled in the art, e.g., Fiel et. al., supra. Briefly, the longitudinal relaxation time (T1) for excised tissue was measured at 37° C., with a Praxis II™ relaxometer (Praxis Corporation, San Antonio, Tex.) operating at 10.7 MHz and employing a saturation recovery pulse sequence.
Relaxivity in tumor tissue was measured for each porphyrin on excised tissue at 10.7 MHz, 24 hours post injection of a 100 mg/kg dose (table 3).
*Expressed as the relaxation rate of tissue from treated animals (24 hrs)
minus the relaxation rate of tissue from untreated animal (control)
divided by the concentration of porphyrin in the tumor tissue.

Data set [4] in a line: Hydrophobicity of the porphyrins. The data set is classed as physicochemical. The settings on record: rank within the series of four.

Consider `O=S(=O)([O-])c1ccc(-c2c3nc(c(-c4ccc(S(=O)(=O)[O-])cc4)c4ccc([nH]4)c(-c4ccc(S(=O)(=O)[O-])cc4)c4nc(c(-c5ccccc5)c5ccc2[nH]5)C=C4)C=C3)cc1.[Mn+3]` [MnTPPS3, manganese III meso-[tri(4-sulfonatophenyl)phenyl]porphine], for which, in data set [1], the concentration in kidney result was “high concentration found in the kidney at 1 hour”; the kidney clearance result was “cleared rapidly and concentrated in the urine”. In data set [1] (60 min), the “Ratios of the concentration of porphyrins in liver to kidney” value (“Ratios of the concentration … to kidney” for short) is recorded as 0.7 and the “Ratios of the concentration of porphyrins in tumor to muscle” value (from here on “Ratios of the concentration … to muscle”) turned out to be 3.2. The “Ratios of the concentration … to kidney” value in data set [1] (1440 min) turned out to be 1.8. The “LD50 for L1210 cells in culture at day 2” value in the data set with L1210 cells was determined as 1010. Moreover, in data set [2] (1 hour post injection), the “tumor appearance in MR image” value is “the tumor appears somewhat brighter than the control, although it remains homogeneous” and the “kidney signal in MR image” value was “high intensity signal in the region of the pelvis”. In addition, the “kidney signal in MR image” value in data set [2] (1 hour post injection, listed as Mn(III)TPPS3, 100 mg/kg) is listed as “concentration of porphyrin in kidneys at 1 hour”. In data set [2] (1 hr post injection, tumor), the “Normalized Signal Intensity, confidence interval” value was 0.769-0.784; the “Normalized Signal Intensity, range” value is recorded as 0.766-0.780; the “Normalized Signal Intensity, mean ± SD” value is 0.774 ± .006. In addition, in data set [2] (24 hours post injection), the “tumor appearance in MR image” value was “the tumor appears very heterogeneous”. Further, the “tumor appearance in MR image” value in data set [2] (24 hours post injection, listed as Mn(III)TPPS3, 100 mg/kg) is “heterogeneous signal enhancement in tumor at 24 hours”. In data set [2] (24 hrs post injection, tumor), the “Normalized Signal Intensity, confidence interval” value is 0.815-0.841; the “Normalized Signal Intensity, range” value is 0.820-0.836; the “Normalized Signal Intensity, mean ± SD” value is 0.828 ± .007. Besides, the “Signal intensity increase over the value at 1 hr” value in data set [2] (24 hrs vs 1 hr, tumor) came to 7%. Further, in data set [2] (24 hrs vs control, tumor), the “Signal intensity increase over control” value turned out to be 21%. Further, the “tumor uptake, tumor/muscle ratio and relaxivity in tumor tissue, overall ranking” value in data set [3] was “superior to all others in regard to tumor uptake, tumor/muscle ratio and relaxivity in tumor tissue”.
For the compound `O=S(=O)([O-])c1ccc(-c2c3nc(c(-c4ccc(S(=O)(=O)[O-])cc4)c4ccc([n-]4)c(-c4ccc(S(=O)(=O)[O-])cc4)c4ccc([n-]4)c(-c4ccc(S(=O)(=O)[O-])cc4)c4nc2C=C4)C=C3)cc1.[Mn+3]` [MnTPPS4, manganese III meso-tetra(4-sulfonatophenyl)porphine, reference compound], the “Ratios of the concentration … to kidney” value in data set [1] (60 min) and in data set [1] (1440 min) was 0.3 in each case. Besides, the hydrophobicity entry in data set [4] is on record as “the least hydrophobic porphyrin”. Moreover, in data set [3], the “Relaxivity of tumors excised from mice (relaxation rate of treated minus untreated tissue divided by porphyrin concentration in tumor tissue)” value is reported as 0.207 ± .004.
As to “manganese III meso-[cis-di(4-sulfonatophenyl)diphenyl]porphine [MnTPPS2(cis)]”, in data set [1] (60 min), the “Ratios of the concentration … to kidney” value is 6.4 and the “Ratios of the concentration … to muscle” value is 2.8. Moreover, in data set [1] (1440 min), the “Ratios of the concentration … to kidney” value is reported as 5.5 and the “Ratios of the concentration … to muscle” value was 9.7. For the same compound, the “Relaxivity of tumors excised from mice (relaxation rate of treated minus untreated tissue divided by porphyrin concentration in tumor tissue)” value in data set [3] (measurement from one mouse) was 0.361. In data set [3], the “tumor uptake, tumor/muscle ratio and relaxivity in tumor tissue, overall ranking” value was “superior to MnTPPS4”.
Take “manganese III meso-[trans-di(4-sulfonato-phenyl)diphenyl]porphine [MnTPPS2(trans)]”: in data set [1] (60 min), the “Ratios of the concentration … to kidney” value is 4.4 and the “Ratios of the concentration … to muscle” value is given as 2.3. For the same compound, in data set [1] (1440 min), the “Ratios of the concentration … to kidney” value amounted to 3.8 and the “Ratios of the concentration … to muscle” value is reported as 11.6. In data set [3], the “Relaxivity of tumors excised from mice (relaxation rate of treated minus untreated tissue divided by porphyrin concentration in tumor tissue)” value is reported as 0.296 ± .045; the “tumor uptake, tumor/muscle ratio and relaxivity in tumor tissue, overall ranking” value is “superior to MnTPPS4”.
